{"source": "ChEMBL document CHEMBL5241106", "about": "“Discovery of a Dual Tubulin and Poly(ADP-Ribose) Polymerase-1 Inhibitor by Structure-Based Pharmacophore Modeling, Virtual Screening, Molecular Docking, and Biological Evaluation” (J Med Chem, 2021)", "key": {"MDA-MB-231 [1]": {"test_system": "MDA-MB-231", "assay": "Induction of apoptosis in human MDA-MB-231 cells assessed as necrotic cells at 0.5 uM incubated for 48 hrs by Annexin V-FITC/PI staining based flow cytometry (reference value: 1.86%)", "type": "functional"}, "[2]": {"assay": "Toxicity in BALB/c mouse xenografted with human MDA-MB-231 cells assessed as change in lung morphological changes at 1 to 5 mg/kg, ip administered every 4 days for 7 times measured at 48 hrs post-last administration by H and E staining based fluorescence microscopic analysis", "type": "organism-based", "conditions": "in vivo, 720 h, dose 1-5 mg/kg, time 30 day"}, "CDK4/Cyclin D3": {"biological_target": "CDK4/Cyclin D3 (Homo sapiens, UniProt P11802)", "sequence (P11802 whole entry)": "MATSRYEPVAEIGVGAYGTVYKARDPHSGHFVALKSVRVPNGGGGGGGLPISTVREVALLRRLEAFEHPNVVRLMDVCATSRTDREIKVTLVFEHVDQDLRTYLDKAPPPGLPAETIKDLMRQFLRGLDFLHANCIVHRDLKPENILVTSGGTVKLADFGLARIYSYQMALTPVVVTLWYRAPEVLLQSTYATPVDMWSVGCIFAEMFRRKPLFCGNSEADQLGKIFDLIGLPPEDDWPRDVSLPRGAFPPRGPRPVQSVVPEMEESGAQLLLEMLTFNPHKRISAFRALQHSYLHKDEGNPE", "sequence (P30281 whole entry, further chain)": "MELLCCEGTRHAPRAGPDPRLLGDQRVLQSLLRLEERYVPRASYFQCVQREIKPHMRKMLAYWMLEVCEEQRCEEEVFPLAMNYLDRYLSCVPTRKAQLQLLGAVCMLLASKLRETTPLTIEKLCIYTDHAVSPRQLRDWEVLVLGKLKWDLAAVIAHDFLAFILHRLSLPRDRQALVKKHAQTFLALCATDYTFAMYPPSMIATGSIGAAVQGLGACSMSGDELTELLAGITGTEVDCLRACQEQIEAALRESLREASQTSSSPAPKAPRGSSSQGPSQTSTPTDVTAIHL", "assay": "Inhibition of CDK4/Cyclin D3 (unknown origin)", "type": "protein-complex assay"}, "MCF-10A [3]": {"test_system": "MCF-10A", "assay": "Induction of apoptosis in human MCF-10A cells at 0.5 to 12.5 uM incubated for 48 hrs by Annexin V-FITC/PI staining based flow cytometry", "type": "toxicity, cell-based", "conditions": "dose 0.5-12.5 µM"}, "[4]": {"biological_target": "Epidermal growth factor receptor (Homo sapiens, UniProt P00533)", "sequence (P00533 whole entry)": "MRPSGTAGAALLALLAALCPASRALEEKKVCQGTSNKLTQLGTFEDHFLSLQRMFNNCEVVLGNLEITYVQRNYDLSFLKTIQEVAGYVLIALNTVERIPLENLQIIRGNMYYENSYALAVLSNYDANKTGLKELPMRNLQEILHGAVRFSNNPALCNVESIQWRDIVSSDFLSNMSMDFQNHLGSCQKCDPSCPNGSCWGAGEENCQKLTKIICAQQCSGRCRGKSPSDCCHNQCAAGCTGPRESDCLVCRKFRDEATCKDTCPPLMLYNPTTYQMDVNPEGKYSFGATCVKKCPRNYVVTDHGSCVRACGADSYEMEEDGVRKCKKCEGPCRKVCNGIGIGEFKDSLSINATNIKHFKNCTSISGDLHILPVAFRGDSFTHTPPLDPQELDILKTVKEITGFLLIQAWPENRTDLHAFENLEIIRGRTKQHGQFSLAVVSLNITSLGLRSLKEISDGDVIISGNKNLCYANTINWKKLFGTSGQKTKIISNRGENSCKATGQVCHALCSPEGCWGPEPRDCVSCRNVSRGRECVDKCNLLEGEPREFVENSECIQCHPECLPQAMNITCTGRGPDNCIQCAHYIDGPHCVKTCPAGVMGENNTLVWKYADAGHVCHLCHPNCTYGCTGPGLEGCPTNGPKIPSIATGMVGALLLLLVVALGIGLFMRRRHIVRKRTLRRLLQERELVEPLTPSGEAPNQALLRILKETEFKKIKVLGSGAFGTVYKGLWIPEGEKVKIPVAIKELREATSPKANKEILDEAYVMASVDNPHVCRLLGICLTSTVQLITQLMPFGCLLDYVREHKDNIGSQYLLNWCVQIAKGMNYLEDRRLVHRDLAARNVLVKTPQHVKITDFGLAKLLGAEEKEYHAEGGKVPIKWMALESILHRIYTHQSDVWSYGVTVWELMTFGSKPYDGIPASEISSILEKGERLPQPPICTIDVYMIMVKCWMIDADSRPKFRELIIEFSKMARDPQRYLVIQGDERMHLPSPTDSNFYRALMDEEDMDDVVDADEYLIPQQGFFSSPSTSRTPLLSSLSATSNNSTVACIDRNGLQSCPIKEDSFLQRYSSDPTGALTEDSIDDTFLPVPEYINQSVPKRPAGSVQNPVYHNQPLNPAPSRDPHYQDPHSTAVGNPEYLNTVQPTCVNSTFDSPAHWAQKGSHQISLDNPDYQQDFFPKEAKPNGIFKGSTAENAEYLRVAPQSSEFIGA", "assay": "Inhibition of EGFR (unknown origin)"}, "MDA-MB-231 [5]": {"test_system": "MDA-MB-231", "assay": "Anticancer activity against human MDA-MB-231 cells xenografted in BALB/c mouse assessed as reduction in tumor volume at 5 mg/kg, ip administered for every 4 days for 7 times", "type": "functional, organism-based", "conditions": "time 28.0 day"}, "[6]": {"assay": "Toxicity in BALB/c mouse xenografted with human MDA-MB-231 cells assessed as effect on platelet count at 1 to 5 mg/kg, ip administered every 4 days for 7 times measured at 48 hrs post-last administration", "type": "organism-based", "conditions": "in vivo, 720 h, dose 1-5 mg/kg, time 30 day"}, "MDA-MB-231 [7]": {"test_system": "MDA-MB-231", "assay": "Inhibition of colony formation in human MDA-MB-231 cells measured after 10 days by crystal violet staining based analysis", "type": "functional, cell-based", "conditions": "dose 0.5-12.5 µM, time 10.0 day"}, "[8]": {"assay": "Toxicity in BALB/c mouse xenografted with human MDA-MB-231 cells assessed as effect on hemoglobin level at 1 to 5 mg/kg, ip administered every 4 days for 7 times measured at 48 hrs post-last administration", "type": "organism-based", "conditions": "in vivo, 720 h, dose 1-5 mg/kg, time 30 day"}, "Tubulin (Homo sapiens) [9]": {"biological_target": "T1, Tubulin (Homo sapiens) (UniProt P68371+Q9H4B7+P0DPH7+P68366+Q13509+Q71U36+P04350+Q3ZCM7+P07437+P68363+Q9BQE3+Q6PEY2+Q13885+Q9BVA1+Q9BUF5)", "assay": "Inhibition of tubulin polymerization in human MCF-10A cells assessed as destruction of normal microtubule network at 0.5 to 12.5 uM incubated for 48 hrs by immunofluorescence assay", "type": "cell-based", "conditions": "dose 0.5-12.5 µM"}, "MCF-10A [10]": {"test_system": "MCF-10A", "assay": "Induction of cell cycle arrest in human MCF-10A cells at 0.5 to 12.5 uM incubated for 48 hrs by propidium iodide staining based flow cytometry", "type": "toxicity", "conditions": "dose 0.5-12.5 µM"}, "[11]": {"assay": "[…] of angiogenesis in human HUVEC cells assessed as inhibition of capillary tube formation at 12.5 uM incubated for 8 hrs by inverted microscopic analysis", "type": "functional", "set-up": "scale not given: the % may be the effect or the level left"}, "[12]": {"assay": "Toxicity in BALB/c mouse xenografted with human MDA-MB-231 cells assessed as change in kidney morphological changes at 1 to 5 mg/kg, ip administered every 4 days for 7 times measured at 48 hrs post-last administration by H and E staining based fluorescence microscopic analysis", "type": "organism-based", "conditions": "in vivo, 720 h, dose 1-5 mg/kg, time 30 day"}, "[13]": {"assay": "Hepatotoxicity in BALB/c mouse xenografted with human MDA-MB-231 cells assessed as effect on blood AST level at 1 to 5 mg/kg, ip administered every 4 days for 7 times measured at 48 hrs post-last administration", "type": "toxicity, organism-based", "conditions": "in vivo, 720 h, dose 1-5 mg/kg, time 30 day"}, "[14]": {"assay": "Toxicity in BALB/c mouse xenografted with human MDA-MB-231 cells assessed as effect on RBC count at 1 to 5 mg/kg, ip administered every 4 days for 7 times measured at 48 hrs post-last administration", "type": "organism-based, Erythrocyte", "conditions": "in vivo, 720 h, dose 1-5 mg/kg, time 30 day"}, "MDA-MB-231 [15]": {"test_system": "MDA-MB-231", "assay": "Induction of apoptosis in human MDA-MB-231 cells assessed as late apoptotic cells at 2.5 uM incubated for 48 hrs by Annexin V-FITC/PI staining based flow cytometry (reference value: 5.06%)", "type": "functional"}, "MDA-MB-231 [16]": {"test_system": "MDA-MB-231", "assay": "Inhibition of colony formation in human MDA-MB-231 cells at 2.5 uM measured after 10 days by crystal violet staining based analysis", "type": "functional", "conditions": "MDA-MB-231, 240 h, time 10 day"}, "MDA-MB-231 [17]": {"test_system": "MDA-MB-231", "assay": "Induction of apoptosis in human MDA-MB-231 cells assessed as viable cells at 2.5 uM incubated for 48 hrs by Annexin V-FITC/PI staining based flow cytometry (reference value: 91.4%)", "type": "functional", "conditions": "read-out: Activity"}, "Tubulin (Homo sapiens) [18]": {"biological_target": "T1, Tubulin (Homo sapiens)", "assay": "Inhibition of tubulin polymerization in human MDA-MB-231 cells assessed as blurred or disappeared nucleus and destruction of normal microtubule network at 12.5 uM incubated for 48 hrs by immunofluorescence assay", "type": "cell-based"}, "MDA-MB-231 [19]": {"test_system": "MDA-MB-231", "assay": "Induction of apoptosis in human MDA-MB-231 cells assessed as early apoptotic cells at 2.5 uM incubated for 48 hrs by Annexin V-FITC/PI staining based flow cytometry (reference value: 1.71%)", "type": "functional"}, "[20]": {"biological_target": "Phosphatidylinositol 4,5-bisphosphate 3-kinase catalytic subunit gamma isoform (Homo sapiens, UniProt P48736)", "sequence (P48736 whole entry, canonical isoform)": "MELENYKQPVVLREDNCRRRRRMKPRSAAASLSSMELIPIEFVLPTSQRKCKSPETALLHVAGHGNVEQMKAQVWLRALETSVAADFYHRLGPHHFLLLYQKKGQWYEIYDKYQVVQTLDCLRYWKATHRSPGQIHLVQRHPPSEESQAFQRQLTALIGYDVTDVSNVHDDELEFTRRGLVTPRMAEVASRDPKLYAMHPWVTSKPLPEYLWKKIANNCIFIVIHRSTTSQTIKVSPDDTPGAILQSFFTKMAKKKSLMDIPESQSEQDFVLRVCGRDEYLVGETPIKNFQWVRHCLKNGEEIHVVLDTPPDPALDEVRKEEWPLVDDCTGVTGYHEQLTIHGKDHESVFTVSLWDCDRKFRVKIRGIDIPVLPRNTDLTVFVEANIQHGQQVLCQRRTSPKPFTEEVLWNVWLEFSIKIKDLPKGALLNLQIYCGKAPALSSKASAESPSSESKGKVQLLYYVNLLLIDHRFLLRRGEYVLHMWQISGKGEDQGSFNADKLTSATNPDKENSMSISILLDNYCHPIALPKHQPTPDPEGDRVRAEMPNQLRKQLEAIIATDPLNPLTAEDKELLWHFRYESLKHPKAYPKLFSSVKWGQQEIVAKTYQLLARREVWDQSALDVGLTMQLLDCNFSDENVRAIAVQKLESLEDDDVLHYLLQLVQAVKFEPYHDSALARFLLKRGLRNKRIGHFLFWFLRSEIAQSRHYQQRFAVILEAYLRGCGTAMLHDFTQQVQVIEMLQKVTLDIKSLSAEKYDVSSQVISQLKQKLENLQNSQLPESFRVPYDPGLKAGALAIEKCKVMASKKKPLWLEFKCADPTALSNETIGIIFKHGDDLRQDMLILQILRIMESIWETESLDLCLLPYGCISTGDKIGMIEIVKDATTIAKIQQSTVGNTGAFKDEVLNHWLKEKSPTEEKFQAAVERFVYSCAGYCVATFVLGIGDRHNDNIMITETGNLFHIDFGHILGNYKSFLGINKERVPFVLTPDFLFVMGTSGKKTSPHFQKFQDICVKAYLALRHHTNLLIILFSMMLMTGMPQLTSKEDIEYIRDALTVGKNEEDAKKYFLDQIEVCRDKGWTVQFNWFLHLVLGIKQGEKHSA", "assay": "Inhibition of PI3KCG (unknown origin)"}, "Tubulin": {"biological_target": "Tubulin", "assay": "Inhibition of tubulin polymerization (unknown origin) by turbidimetric analysis", "type": "protein-complex assay, Homo sapiens", "conditions": "read-out: IC50"}, "[21]": {"biological_target": "Serine/threonine-protein kinase pim-1 (Homo sapiens, UniProt P11309)", "sequence (P11309 whole entry)": "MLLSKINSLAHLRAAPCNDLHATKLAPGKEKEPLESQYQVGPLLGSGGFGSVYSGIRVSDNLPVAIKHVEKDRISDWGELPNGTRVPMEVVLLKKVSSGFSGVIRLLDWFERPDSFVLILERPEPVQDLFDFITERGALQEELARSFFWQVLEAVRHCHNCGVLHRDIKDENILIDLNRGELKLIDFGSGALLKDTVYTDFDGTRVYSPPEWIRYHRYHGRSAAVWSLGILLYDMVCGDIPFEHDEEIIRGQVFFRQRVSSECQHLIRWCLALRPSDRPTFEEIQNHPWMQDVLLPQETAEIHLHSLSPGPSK", "assay": "Inhibition of PIM-1 (unknown origin)"}, "MDA-MB-231 [22]": {"test_system": "MDA-MB-231", "assay": "Induction of cell cycle arrest in human MDA-MB-231 cells assessed as decrease in cyclin B1 expression at 0.5 to 12.5 uM incubated for 48 hrs by western blot analysis", "type": "functional, cell-based", "conditions": "dose 0.5-12.5 µM"}, "HeLa": {"test_system": "HeLa", "assay": "Cytotoxicity against human HeLa cells assessed as inhibition of cell growth incubated for 72 hrs by MTT assay", "type": "functional, cell-based"}, "SK-OV-3": {"test_system": "SK-OV-3", "assay": "Cytotoxicity against human SK-OV-3 cells assessed as inhibition of cell growth incubated for 72 hrs by MTT assay", "type": "functional, cell-based", "conditions": "SK-OV-3, 72 h"}, "MDA-MB-231 [23]": {"test_system": "MDA-MB-231", "assay": "Induction of apoptosis in human MDA-MB-231 cells assessed as early apoptotic cells at 0.5 uM incubated for 48 hrs by Annexin V-FITC/PI staining based flow cytometry (reference value: 1.71%)", "type": "functional"}, "[24]": {"assay": "Toxicity in BALB/c mouse xenografted with human MDA-MB-231 cells assessed as change in spleen morphological changes at 1 to 5 mg/kg, ip administered every 4 days for 7 times measured at 48 hrs post-last administration by H and E staining based fluorescence microscopic analysis", "type": "organism-based", "conditions": "in vivo, 720 h, dose 1-5 mg/kg, time 30 day"}, "Tubulin (Homo sapiens) [25]": {"biological_target": "T1, Tubulin (Homo sapiens)", "assay": "Inhibition of tubulin polymerization in human MDA-MB-231 cells assessed as cell shrinkage, increase in nuclear disruption and microtubule dispersion at 0.5 to 2.5 uM incubated for 48 hrs by immunofluorescence assay", "type": "cell-based", "conditions": "dose 0.5-2.5 µM"}, "[26]": {"assay": "Toxicity in BALB/c mouse xenografted with human MDA-MB-231 cells assessed as effect on WBC count at 1 to 5 mg/kg, ip administered every 4 days for 7 times measured at 48 hrs post-last administration", "type": "organism-based", "conditions": "in vivo, 720 h, dose 1-5 mg/kg, time 30 day"}, "MDA-MB-231 [27]": {"test_system": "MDA-MB-231", "assay": "Cytotoxicity against human MDA-MB-231 cells assessed as inhibition of cell growth incubated for 72 hrs by MTT assay", "type": "functional, cell-based"}, "MDA-MB-231 [28]": {"test_system": "MDA-MB-231", "assay": "Induction of cell cycle arrest in human MDA-MB-231 cells assessed as proportion of cells at G2/M phase at 0.5 uM incubated for 48 hrs by propidium iodide staining based flow cytometry (reference value: 9.81%)", "type": "functional"}}, "note": "Activity calls are given as the source filed them. The rule behind the calls is not given here."}
{"smiles": "O=c1[nH]c(/C=C/c2cccc(F)c2)nc2ccccc12", "values": [{"measurement": "Activity", "setting": "MDA-MB-231 [1]", "value": 0.88, "unit": "%"}, {"measurement": "Activity", "setting": "[2]", "value": "Non-Toxic"}, {"measurement": "IC50", "setting": "CDK4/Cyclin D3", "value": "> 10000", "unit": "nM"}, {"measurement": "Activity", "setting": "MCF-10A [3]", "value": "Non-Toxic"}, {"measurement": "IC50", "setting": "[4]", "value": "> 10000", "unit": "nM"}, {"measurement": "Activity", "setting": "MDA-MB-231 [5]", "value": "Active"}, {"measurement": "Activity", "setting": "[6]", "value": "Non-Toxic"}, {"measurement": "inhibition", "setting": "MDA-MB-231 [7]", "value": "Dose-Dependent Effect"}, {"measurement": "Activity", "setting": "[8]", "value": "Non-Toxic"}, {"measurement": "inhibition", "setting": "Tubulin (Homo sapiens) [9]", "value": "inactive"}, {"measurement": "Activity", "setting": "MCF-10A [10]", "value": "Non-Toxic"}, {"measurement": "Activity", "setting": "[11]", "value": 100, "unit": "%"}, {"measurement": "Activity", "setting": "[12]", "value": "Non-Toxic"}, {"measurement": "Activity", "setting": "[13]", "value": "Non-Toxic"}, {"measurement": "Activity", "setting": "[14]", "value": "Non-Toxic"}, {"measurement": "Activity", "setting": "MDA-MB-231 [15]", "value": 6.62, "unit": "%"}, {"measurement": "inhibition at 2.5 µM", "setting": "MDA-MB-231 [16]", "value": 100, "unit": "%"}, {"measurement": "viability at 2.5 µM", "setting": "MDA-MB-231 [17]", "value": 90.2, "unit": "%"}, {"measurement": "inhibition", "setting": "Tubulin (Homo sapiens) [18]", "value": "Active"}, {"measurement": "Activity", "setting": "MDA-MB-231 [19]", "value": 2.23, "unit": "%"}, {"measurement": "IC50", "setting": "[20]", "value": "> 10000", "unit": "nM"}, {"measurement": "IC50", "setting": "Tubulin", "value": 940, "unit": "nM"}, {"measurement": "IC50", "setting": "[21]", "value": "> 10000", "unit": "nM"}, {"measurement": "Activity", "setting": "MDA-MB-231 [22]", "value": "Active"}, {"measurement": "IC50", "setting": "HeLa", "value": 1500, "unit": "nM"}, {"measurement": "IC50", "setting": "SK-OV-3", "value": 1700, "unit": "nM"}, {"measurement": "Activity", "setting": "MDA-MB-231 [23]", "value": 2.16, "unit": "%"}, {"measurement": "Activity", "setting": "[24]", "value": "Non-Toxic"}, {"measurement": "inhibition", "setting": "Tubulin (Homo sapiens) [25]", "value": "Active"}, {"measurement": "Activity", "setting": "[26]", "value": "Non-Toxic"}, {"measurement": "Activity", "setting": "MDA-MB-231 [27]", "value": "Active"}, {"measurement": "Activity", "setting": "MDA-MB-231 [28]", "value": 23.57, "unit": "%"}]}
